This assay is described as follows: Luciferase Assay: The Huh-7 cells transfected with HCV replicons system were seeded into 96-well plates (8,000 cells in 125 μL/well) respectively; each test compound was diluted to desired concentration using 5-fold serial dilutions protocol, 10 doses in duplicate, and added to wells with POD™ 810 Plate Assembler. […] In this paper, experiments were repeated twice and set the holes without compounds as negative control. Background: In antiviral work, replicon cells carry a viral genome segment that copies itself.

A word on the EC50: it is the concentration at which the effect is half-maximal. A lower EC50 goes with greater potency.

In turn, `COC(=O)N[C@H](C(=O)N1CCC[C@H]1c1ncc(-c2ccc(-c3ccc(-c4ccc5nc([C@@H]6CCCN6C(=O)[C@@H](NC(=O)OC)C(C)C)[nH]c(=O)c5c4)c4c3CC3(CCCC3)C4)cc2)[nH]1)C(C)C` displayed a concentration giving a half-maximal response (EC50) of 0.087 nM. For `COC(=O)N[C@H](C(=O)N1C[C@@H](C)C[C@H]1[n+]1c[nH]c(-c2ccc(-c3ccc(-c4ccc5nc([C@@H]6C[C@H](C)CN6C(=O)[C@@H](NC(=O)OC)C(C)C)[nH]c(=O)c5c4)c4c3CC3(CCCC3)C4)cc2)c1)C(C)C`, the EC50 (Huh-7) was 0.006 nM.

Source of the values: ChEMBL document CHEMBL3886877, “Spiro ring compound as hepatitis C virus (HCV) inhibitor and uses thereof” (2016).
